Measured values as given in the Biogen ADME set (Fang et al. 2023).
≈ marks a conversion by molar mass, not a printed value.

Conditions: for aqueous solubility: pH 6.8

For `Cc1csc(N2CCN(Cc3ccc(OCC(F)(F)F)nc3)CC2)n1`, the MDR1-MDCK efflux ratio was 0.655, the intrinsic clearance, human liver microsomes was 22.7 mL/min/kg and the intrinsic clearance, rat liver microsomes was 106 mL/min/kg. For the same compound, the aqueous solubility was 31 µg/mL (≈ 83.3 µM).
`Cc1cccc(OC2CN(C(=O)Cn3c(C)nn(-c4ccccc4)c3=O)C2)c1` showed an MDR1-MDCK efflux ratio of 0.993, an intrinsic clearance, human liver microsomes of 13.5 mL/min/kg and an intrinsic clearance, rat liver microsomes of 103 mL/min/kg. It also gave an aqueous solubility of 5.11 µg/mL (≈ 13.5 µM).
`CNC(=O)c1ccc2c(c1)CCO[C@H]2CCN1CCN(c2ccc(C(N)=O)cc2)CC1` gave an MDR1-MDCK efflux ratio of 21.5, an intrinsic clearance, human liver microsomes of at most 4.74 mL/min/kg and an intrinsic clearance, rat liver microsomes of at most 10.7 mL/min/kg. It also gave an aqueous solubility of 90 µg/mL (≈ 213 µM).
`Cc1nnsc1CN(C)c1ccc2cc[nH]c2n1` gave an MDR1-MDCK efflux ratio of 0.593, an intrinsic clearance, human liver microsomes of 39.3 mL/min/kg and an intrinsic clearance, rat liver microsomes of 342 mL/min/kg. The aqueous solubility was 24.5 µg/mL (≈ 94.5 µM).
Compound `O=C(Nc1cccnc1)c1ccccc1Cc1ccccc1` has an MDR1-MDCK efflux ratio of 0.612, an intrinsic clearance, human liver microsomes of 33.9 mL/min/kg and an intrinsic clearance, rat liver microsomes of 461 mL/min/kg. It also gave an aqueous solubility of 70.5 µg/mL (≈ 245 µM).
`Cc1cc(C)n(-c2ccc(CNC(=O)C3CCC3)cn2)n1` gave an MDR1-MDCK efflux ratio of 1.08, an intrinsic clearance, human liver microsomes of 9.73 mL/min/kg and an intrinsic clearance, rat liver microsomes of 571 mL/min/kg. For the same compound, the aqueous solubility was 39.7 µg/mL (≈ 140 µM).
In the case of `COc1cc(CN2CCC(C(=O)N3CCOCC3)CC2)ccc1C`, the MDR1-MDCK efflux ratio is reported as 2.9, the intrinsic clearance, human liver microsomes is reported as 9.42 mL/min/kg and the intrinsic clearance, rat liver microsomes is reported as 228 mL/min/kg.
Work on `Cc1cc(NC(=O)CN(C)CCOc2ccccc2)on1` yielded an MDR1-MDCK efflux ratio of 0.516, an intrinsic clearance, human liver microsomes of 166 mL/min/kg and an intrinsic clearance, rat liver microsomes of 622 mL/min/kg.
In the case of `CC1(C(=O)O)CCN(Cc2ccccc2)CC1`, the intrinsic clearance, human liver microsomes is reported as at most 4.74 mL/min/kg, the intrinsic clearance, rat liver microsomes is reported as at most 10.7 mL/min/kg and the aqueous solubility is reported as 44.9 µg/mL (≈ 193 µM).
Work on `Cn1c(SCOCc2ccccc2)nnc1C1CC1` yielded an MDR1-MDCK efflux ratio of 0.57, an intrinsic clearance, human liver microsomes of 27.1 mL/min/kg and an intrinsic clearance, rat liver microsomes of 271 mL/min/kg.
Work on `CC(C)CCNC(=O)c1ccc2ccccc2n1` yielded an intrinsic clearance, human liver microsomes of 168 mL/min/kg, an intrinsic clearance, rat liver microsomes of 640 mL/min/kg and an aqueous solubility of 7.28 µg/mL (≈ 30 µM).
For `CCc1nc(COc2ccccc2Br)no1`, the aqueous solubility was 21.9 µg/mL (≈ 77.5 µM).
`c1cnc(NCCc2cccc3cccnc23)nc1` gave an intrinsic clearance, human liver microsomes of 105 mL/min/kg, an intrinsic clearance, rat liver microsomes of 879 mL/min/kg and an aqueous solubility of 37 µg/mL (≈ 148 µM).
In the case of `C=CC(=O)Nc1cccc(Oc2nc(Nc3ccc(N4CCN(C)CC4)c(F)c3)nc3[nH]ccc23)c1`, the MDR1-MDCK efflux ratio is reported as 50.6, the fraction unbound, human plasma is reported as 0.0109 and the fraction unbound, rat plasma is reported as 0.00726. It also gave an intrinsic clearance, human liver microsomes of 26.8 mL/min/kg and an intrinsic clearance, rat liver microsomes of 344 mL/min/kg.
For `Clc1ccc(C2(c3ccc(-c4cn[nH]c4)cc3)CCNCC2)cc1`, the MDR1-MDCK efflux ratio was 99, the intrinsic clearance, human liver microsomes was at most 4.74 mL/min/kg and the intrinsic clearance, rat liver microsomes was at most 10.7 mL/min/kg. For the same compound, the aqueous solubility was 18.5 µg/mL (≈ 54.8 µM).
With `Cc1cccc2c(=O)n(CCC(=O)Nc3cc(C4CC4)n[nH]3)cnc12` the aqueous solubility was 8.26 µg/mL (≈ 24.5 µM).
In the case of `CCN(c1cc(-c2ccc(CN3CCOCC3)cc2)cc(C(=O)NCc2c(C)cc(C)nc2O)c1C)C1CCOCC1`, the MDR1-MDCK efflux ratio is reported as 60.3, the intrinsic clearance, human liver microsomes is reported as 131 mL/min/kg and the intrinsic clearance, rat liver microsomes is reported as 525 mL/min/kg. The aqueous solubility was 49.2 µg/mL (≈ 85.9 µM).
With `O=C(CN1CCc2ccccc21)N1CCC(c2nc3ccccc3[nH]2)CC1` the MDR1-MDCK efflux ratio was 56.1, the intrinsic clearance, human liver microsomes was 112 mL/min/kg and the intrinsic clearance, rat liver microsomes was 1180 mL/min/kg. The aqueous solubility was 52.5 µg/mL (≈ 146 µM).
`COc1cc(-c2cn(C3CCc4c(F)cccc4N(CC(F)(F)F)C3=O)nn2)ccc1-n1cnc(C)c1` (stereo unspecified) showed an intrinsic clearance, human liver microsomes of 26.1 mL/min/kg and an intrinsic clearance, rat liver microsomes of 49.2 mL/min/kg.
`NCc1nnc(CCc2ccccc2)o1` showed an intrinsic clearance, human liver microsomes of at most 4.74 mL/min/kg and an intrinsic clearance, rat liver microsomes of at most 10.7 mL/min/kg.
`CC[C@@H]1C(=O)N(C)c2cnc(-n3ccnc3-c3ccc(F)cc3)nc2N1c1ccn(C)n1` showed an MDR1-MDCK efflux ratio of 14.2, an intrinsic clearance, human liver microsomes of 43.7 mL/min/kg and an intrinsic clearance, rat liver microsomes of 413 mL/min/kg.
`Cn1ccc(CSc2n[nH]c(-c3cc(F)cc(F)c3)n2)n1` showed an MDR1-MDCK efflux ratio of 0.58, an intrinsic clearance, human liver microsomes of 12.9 mL/min/kg and an intrinsic clearance, rat liver microsomes of 131 mL/min/kg.
